# Earlier results as cited in patent US10632083B2, “Ophthalmic compositions” (SaCSh Corp., priority 2016, dated 2020).
smiles,measurement,setting,value
"[H]/N=C(\N/C(=N/[H])NCCCCCCNC(=N)NC(=N)Nc1ccc(Cl)cc1)Nc1ccc(Cl)cc1 [chlorhexidine, N,N″″1,6-Hexanediylbis[N′-(4-chlorophenyl)(imidodicarbonimidic diamide)]]",eye damage after topical chlorhexidine accidentally got into the eyes,"Tabor et al. 1989, four cases",irreversible corneal damage
same,eye damage after accidental application to patients undergoing eye surgery,"van Rij et al. 1995, led to bullous keratopathy, all affected patients required corneal transplant",immediate corneal edema
